We go through 7 molecules from ChEMBL document CHEMBL4613209, “Quinolone hybrids and their anti-cancer activities: An overview” (Eur J Med Chem, 2019).

The subject of the first assay is MGC-803. The assay can be described thus: Cytotoxicity against human MGC803 cells assessed as reduction in cell viability. The assay is classed as functional, cell-based.
What is called IC50 is the concentration needed to halve the response being measured. For the molecule `C[C@H]1COc2c(N3CCN(C)CC3)c(F)cc3c(=O)c(-c4nnc(NC(=O)CCCCCCC(=O)NO)s4)cn1c23`, the IC50 fell in the range of 600 to 3100 nM.

In the case of `C[C@H]1COc2c(N3CCN(C)CC3)c(F)cc3c(=O)c(-c4nnc(NC(=O)CCCCCCCC(=O)Nc5ccccc5N)s4)cn1c23`, the IC50 was in the range of 46 to 203 nM.

In the case of `C[C@H]1COc2c(N3CCN(C)CC3)c(F)cc3c(=O)c(-c4nnc(NC(=O)CCCCCCC(=O)Nc5ccccc5N)s4)cn1c23`, the IC50 lay in the range of 46 to 203 nM.

Turning to `C[C@H]1COc2c(N3CCN(C)CC3)c(F)cc3c(=O)c(-c4nnc(NC(=O)CCCCCC(=O)NO)s4)cn1c23`, the IC50 lay within 19 to 127 nM.

As to `C[C@H]1COc2c(N3CCN(C)CC3)c(F)cc3c(=O)c(-c4nnc(NC(=O)CCCCC(=O)Nc5ccccc5N)s4)cn1c23`, the IC50 was in the range of 46 to 203 nM.

For `C[C@H]1COc2c(N3CCN(C)CC3)c(F)cc3c(=O)c(-c4nnc(NC(=O)CCCCCCCCC(=O)O)s4)cn1c23`, the IC50 lay in the range of 1100 to 14300 nM.

In the case of `C[C@H]1COc2c(N3CCN(C)CC3)c(F)cc3c(=O)c(-c4nnc(NC(=O)CCCC(=O)NO)s4)cn1c23`, the IC50 was 19 to 127 nM.

A further assay concerns MCF7. Put plainly: Cytotoxicity against human MCF7 cells assessed as reduction in cell viability. The format is functional, cell-based.
On to `C[C@H]1COc2c(N3CCN(C)CC3)c(F)cc3c(=O)c(-c4nnc(NC(=O)CCCCCCC(=O)NO)s4)cn1c23`, for which the IC50 was 600 to 3100 nM.

Consider `C[C@H]1COc2c(N3CCN(C)CC3)c(F)cc3c(=O)c(-c4nnc(NC(=O)CCCCCCCC(=O)Nc5ccccc5N)s4)cn1c23`, for which the IC50 was 46 to 203 nM.

Regarding `C[C@H]1COc2c(N3CCN(C)CC3)c(F)cc3c(=O)c(-c4nnc(NC(=O)CCCCCCC(=O)Nc5ccccc5N)s4)cn1c23`, the IC50 was 46 to 203 nM.

Regarding `C[C@H]1COc2c(N3CCN(C)CC3)c(F)cc3c(=O)c(-c4nnc(NC(=O)CCCCCC(=O)NO)s4)cn1c23`, the IC50 lay in the range of 19 to 127 nM.

Turning to `C[C@H]1COc2c(N3CCN(C)CC3)c(F)cc3c(=O)c(-c4nnc(NC(=O)CCCCC(=O)Nc5ccccc5N)s4)cn1c23`, the IC50 is 46 to 203 nM.

As to `C[C@H]1COc2c(N3CCN(C)CC3)c(F)cc3c(=O)c(-c4nnc(NC(=O)CCCCCCCCC(=O)O)s4)cn1c23`, the IC50 lay within 1100 to 14300 nM.

Take `C[C@H]1COc2c(N3CCN(C)CC3)c(F)cc3c(=O)c(-c4nnc(NC(=O)CCCC(=O)NO)s4)cn1c23`: the IC50 was in the range of 19 to 127 nM.

A further assay deals with GES1. Put plainly: Cytotoxicity against human GES-1 cells assessed as reduction in cell viability. The assay is classed as cell-based.
Turning to `C[C@H]1COc2c(N3CCN(C)CC3)c(F)cc3c(=O)c(-c4nnc(NC(=O)CCCCCCC(=O)NO)s4)cn1c23`, the IC50 was over 100000 nM.

As for `C[C@H]1COc2c(N3CCN(C)CC3)c(F)cc3c(=O)c(-c4nnc(NC(=O)CCCCCCCC(=O)Nc5ccccc5N)s4)cn1c23`, the IC50 was over 81500 nM.

Turning to `C[C@H]1COc2c(N3CCN(C)CC3)c(F)cc3c(=O)c(-c4nnc(NC(=O)CCCCCCC(=O)Nc5ccccc5N)s4)cn1c23`, the IC50 was over 81500 nM.

For the molecule `C[C@H]1COc2c(N3CCN(C)CC3)c(F)cc3c(=O)c(-c4nnc(NC(=O)CCCCCC(=O)NO)s4)cn1c23`, the IC50 was over 81500 nM.

Regarding `C[C@H]1COc2c(N3CCN(C)CC3)c(F)cc3c(=O)c(-c4nnc(NC(=O)CCCCC(=O)Nc5ccccc5N)s4)cn1c23`, the IC50 is over 81500 nM.

In the case of `C[C@H]1COc2c(N3CCN(C)CC3)c(F)cc3c(=O)c(-c4nnc(NC(=O)CCCCCCCCC(=O)O)s4)cn1c23`, the IC50 was over 81500 nM.

For `C[C@H]1COc2c(N3CCN(C)CC3)c(F)cc3c(=O)c(-c4nnc(NC(=O)CCCC(=O)NO)s4)cn1c23`, the IC50 was over 81500 nM.

Another assay relates to NCI-H460. Put plainly: Cytotoxicity against human NCI-H460 cells assessed as reduction in cell viability. The assay is classed as functional, cell-based.
In the case of `C[C@H]1COc2c(N3CCN(C)CC3)c(F)cc3c(=O)c(-c4nnc(NC(=O)CCCCCCC(=O)NO)s4)cn1c23`, the IC50 lay within 600 to 3100 nM.

In the case of `C[C@H]1COc2c(N3CCN(C)CC3)c(F)cc3c(=O)c(-c4nnc(NC(=O)CCCCCCCC(=O)Nc5ccccc5N)s4)cn1c23`, the IC50 lay in the range of 46 to 203 nM.

For the molecule `C[C@H]1COc2c(N3CCN(C)CC3)c(F)cc3c(=O)c(-c4nnc(NC(=O)CCCCCCC(=O)Nc5ccccc5N)s4)cn1c23`, the IC50 lay within 46 to 203 nM.

As to `C[C@H]1COc2c(N3CCN(C)CC3)c(F)cc3c(=O)c(-c4nnc(NC(=O)CCCCCC(=O)NO)s4)cn1c23`, the IC50 was 19 to 127 nM.

In the case of `C[C@H]1COc2c(N3CCN(C)CC3)c(F)cc3c(=O)c(-c4nnc(NC(=O)CCCCC(=O)Nc5ccccc5N)s4)cn1c23`, the IC50 fell in the range of 46 to 203 nM.

Regarding `C[C@H]1COc2c(N3CCN(C)CC3)c(F)cc3c(=O)c(-c4nnc(NC(=O)CCCCCCCCC(=O)O)s4)cn1c23`, the IC50 was in the range of 1100 to 14300 nM.

Consider `C[C@H]1COc2c(N3CCN(C)CC3)c(F)cc3c(=O)c(-c4nnc(NC(=O)CCCC(=O)NO)s4)cn1c23`, for which the IC50 lay in the range of 19 to 127 nM.

The next assay has as its system PC-3. The assay can be described thus: Cytotoxicity against human PC3 cells assessed as reduction in cell viability. The format is functional, cell-based.
Turning to `C[C@H]1COc2c(N3CCN(C)CC3)c(F)cc3c(=O)c(-c4nnc(NC(=O)CCCCCCC(=O)NO)s4)cn1c23`, the IC50 was in the range of 600 to 3100 nM.

For the molecule `C[C@H]1COc2c(N3CCN(C)CC3)c(F)cc3c(=O)c(-c4nnc(NC(=O)CCCCCCCC(=O)Nc5ccccc5N)s4)cn1c23`, the IC50 lay in the range of 46 to 203 nM.

As for `C[C@H]1COc2c(N3CCN(C)CC3)c(F)cc3c(=O)c(-c4nnc(NC(=O)CCCCCCC(=O)Nc5ccccc5N)s4)cn1c23`, the IC50 lay in the range of 46 to 203 nM.

Turning to `C[C@H]1COc2c(N3CCN(C)CC3)c(F)cc3c(=O)c(-c4nnc(NC(=O)CCCCCC(=O)NO)s4)cn1c23`, the IC50 is 19 to 127 nM.

Take `C[C@H]1COc2c(N3CCN(C)CC3)c(F)cc3c(=O)c(-c4nnc(NC(=O)CCCCC(=O)Nc5ccccc5N)s4)cn1c23`: the IC50 is 46 to 203 nM.

Take `C[C@H]1COc2c(N3CCN(C)CC3)c(F)cc3c(=O)c(-c4nnc(NC(=O)CCCCCCCCC(=O)O)s4)cn1c23`: the IC50 was in the range of 1100 to 14300 nM.

On to `C[C@H]1COc2c(N3CCN(C)CC3)c(F)cc3c(=O)c(-c4nnc(NC(=O)CCCC(=O)NO)s4)cn1c23`, for which the IC50 lay in the range of 19 to 127 nM.

The subject of the next assay is HepG2. The assay can be described thus: Cytotoxicity against human HepG2 cells assessed as reduction in cell viability. The assay is classed as functional, cell-based.
Turning to `C[C@H]1COc2c(N3CCN(C)CC3)c(F)cc3c(=O)c(-c4nnc(NC(=O)CCCCCCC(=O)NO)s4)cn1c23`, the IC50 was 600 to 3100 nM.

Regarding `C[C@H]1COc2c(N3CCN(C)CC3)c(F)cc3c(=O)c(-c4nnc(NC(=O)CCCCCCCC(=O)Nc5ccccc5N)s4)cn1c23`, the IC50 was in the range of 46 to 203 nM.

Turning to `C[C@H]1COc2c(N3CCN(C)CC3)c(F)cc3c(=O)c(-c4nnc(NC(=O)CCCCCCC(=O)Nc5ccccc5N)s4)cn1c23`, the IC50 lay within 46 to 203 nM.

As for `C[C@H]1COc2c(N3CCN(C)CC3)c(F)cc3c(=O)c(-c4nnc(NC(=O)CCCCCC(=O)NO)s4)cn1c23`, the IC50 lay within 19 to 127 nM.

With `C[C@H]1COc2c(N3CCN(C)CC3)c(F)cc3c(=O)c(-c4nnc(NC(=O)CCCCC(=O)Nc5ccccc5N)s4)cn1c23`, the IC50 was 46 to 203 nM.

Take `C[C@H]1COc2c(N3CCN(C)CC3)c(F)cc3c(=O)c(-c4nnc(NC(=O)CCCCCCCCC(=O)O)s4)cn1c23`: the IC50 was in the range of 1100 to 14300 nM.

Take `C[C@H]1COc2c(N3CCN(C)CC3)c(F)cc3c(=O)c(-c4nnc(NC(=O)CCCC(=O)NO)s4)cn1c23`: the IC50 lay in the range of 19 to 127 nM.

A further assay deals with SW-620. The assay can be described thus: Cytotoxicity against human SW620 cells assessed as reduction in cell viability. The format is functional, cell-based.
Consider `C[C@H]1COc2c(N3CCN(C)CC3)c(F)cc3c(=O)c(-c4nnc(NC(=O)CCCCCCC(=O)NO)s4)cn1c23`, for which the IC50 lay in the range of 600 to 3100 nM.

On to `C[C@H]1COc2c(N3CCN(C)CC3)c(F)cc3c(=O)c(-c4nnc(NC(=O)CCCCCCCC(=O)Nc5ccccc5N)s4)cn1c23`, for which the IC50 lay within 46 to 203 nM.

With `C[C@H]1COc2c(N3CCN(C)CC3)c(F)cc3c(=O)c(-c4nnc(NC(=O)CCCCCCC(=O)Nc5ccccc5N)s4)cn1c23`, the IC50 was 46 to 203 nM.

Take `C[C@H]1COc2c(N3CCN(C)CC3)c(F)cc3c(=O)c(-c4nnc(NC(=O)CCCCCC(=O)NO)s4)cn1c23`: the IC50 lay within 19 to 127 nM.

Consider `C[C@H]1COc2c(N3CCN(C)CC3)c(F)cc3c(=O)c(-c4nnc(NC(=O)CCCCC(=O)Nc5ccccc5N)s4)cn1c23`, for which the IC50 is 46 to 203 nM.

Regarding `C[C@H]1COc2c(N3CCN(C)CC3)c(F)cc3c(=O)c(-c4nnc(NC(=O)CCCCCCCCC(=O)O)s4)cn1c23`, the IC50 was in the range of 1100 to 14300 nM.

Regarding `C[C@H]1COc2c(N3CCN(C)CC3)c(F)cc3c(=O)c(-c4nnc(NC(=O)CCCC(=O)NO)s4)cn1c23`, the IC50 lay within 19 to 127 nM.
